{"source": "ChEMBL document CHEMBL1201862", "about": "“PubChem BioAssay data set” (2004)", "assay_in_all_cases": "DTP human tumour cell line panel, 48 h", "key": {"KM12": {"system": "KM12"}, "NCI/ADR-RES": {"system": "NCI/ADR-RES"}, "SF-268": {"system": "SF-268"}, "NCI-H226": {"system": "NCI-H226"}, "TK-10": {"system": "TK-10"}, "SN12C": {"system": "SN12C"}, "ACHN": {"system": "ACHN"}, "SK-MEL-5": {"system": "SK-MEL-5"}, "MDA-MB-435": {"system": "MDA-MB-435"}, "LOX IMVI": {"system": "LOX IMVI"}, "MOLT-4": {"system": "MOLT-4"}, "HOP-92": {"system": "HOP-92"}, "RPMI-8226": {"system": "RPMI-8226"}, "MDA-N": {"system": "MDA-N"}, "CAKI-1": {"system": "CAKI-1"}, "SK-MEL-28": {"system": "SK-MEL-28"}, "HL-60": {"system": "HL-60"}, "786-0": {"system": "786-0"}, "COLO 205": {"system": "COLO 205"}, "A498": {"system": "A498"}, "HCT-15": {"system": "HCT-15"}, "SNB-75": {"system": "SNB-75"}, "DU-145": {"system": "DU-145"}, "K562": {"system": "K562"}, "IGROV-1": {"system": "IGROV-1"}, "SK-MEL-2": {"system": "SK-MEL-2"}, "EKVX": {"system": "EKVX"}, "HT-29": {"system": "HT-29"}, "UO-31": {"system": "UO-31"}, "PC-3": {"system": "PC-3"}, "RXF 393": {"system": "RXF 393"}, "SF-295": {"system": "SF-295"}, "U-251": {"system": "U-251"}, "MCF7": {"system": "MCF7"}, "SW-620": {"system": "SW-620"}, "OVCAR-5": {"system": "OVCAR-5"}, "OVCAR-4": {"system": "OVCAR-4"}, "SF-539": {"system": "SF-539"}, "HCT-116": {"system": "HCT-116"}, "HOP-62": {"system": "HOP-62"}, "A549": {"system": "A549"}, "NCI-H460": {"system": "NCI-H460"}, "T47D": {"system": "T47D"}, "NCI-H522": {"system": "NCI-H522"}, "Hs-578T": {"system": "Hs-578T"}, "OVCAR-8": {"system": "OVCAR-8"}, "SNB-19": {"system": "SNB-19"}, "OVCAR-3": {"system": "OVCAR-3"}, "SR": {"system": "SR"}, "HCC 2998": {"system": "HCC 2998"}, "Malme-3M": {"system": "Malme-3M"}, "NCI-H23": {"system": "NCI-H23"}, "UACC-62": {"system": "UACC-62"}, "CCRF-CEM": {"system": "CCRF-CEM"}, "SK-OV-3": {"system": "SK-OV-3"}, "UACC-257": {"system": "UACC-257"}, "MDA-MB-231": {"system": "MDA-MB-231"}, "BT-549": {"system": "BT-549"}}, "note": "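Where inhibition never reached the appropriate level, the endpoint shown equals the highest concentration tested. Otherwise, values were interpolated linearly from a five-concentration, 48-hour dose response in 96-well plates. Here, GI50 denotes the concentration required for 50% inhibition of growth.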 The source made the active and inactive calls. Rule as the data show it: active = GI50 up to about 1.1 µM and inactive = higher.", "data": [{"smiles": "CC(C)=CCOc1cc(NC(=S)c2ccsc2C)ccc1Cl", "values": [{"measurement": "GI50", "setting": "KM12", "result": "> 100 µM (inactive)"}, {"measurement": "GI50", "setting": "NCI/ADR-RES", "result": "80.4 µM (inactive)"}, {"measurement": "GI50", "setting": "SF-268", "result": "32.3 µM (inactive)"}, {"measurement": "GI50", "setting": "NCI-H226", "result": "13.5 µM (inactive)"}, {"measurement": "GI50", "setting": "TK-10", "result": "93.5 µM (inactive)"}, {"measurement": "GI50", "setting": "SN12C", "result": "19 µM (inactive)"}, {"measurement": "GI50", "setting": "ACHN", "result": "16.7 µM (inactive)"}, {"measurement": "GI50", "setting": "SK-MEL-5", "result": "36.1 µM (inactive)"}, {"measurement": "GI50", "setting": "MDA-MB-435", "result": "> 100 µM (inactive)"}, {"measurement": "GI50", "setting": "LOX IMVI", "result": "30.7 µM (inactive)"}, {"measurement": "GI50", "setting": "MOLT-4", "result": "20.2 µM (inactive)"}, {"measurement": "GI50", "setting": "HOP-92", "result": "5.87 µM (inactive)"}, {"measurement": "GI50", "setting": "RPMI-8226", "result": "15.7 µM (inactive)"}, {"measurement": "GI50", "setting": "MDA-N", "result": "> 100 µM (inactive)"}, {"measurement": "GI50", "setting": "CAKI-1", "result": "> 100 µM (inactive)"}, {"measurement": "GI50", "setting": "SK-MEL-28", "result": "> 100 µM (inactive)"}, {"measurement": "GI50", "setting": "HL-60", "result": "44.1 µM (inactive)"}, {"measurement": "GI50", "setting": "786-0", "result": "40.2 µM (inactive)"}, {"measurement": "GI50", "setting": "COLO 205", "result": "37.3 µM (inactive)"}, {"measurement": "GI50", "setting": "A498", "result": "27.3 µM (inactive)"}, {"measurement": "GI50", "setting": "HCT-15", "result": "> 100", "unit": "µM"}, {"measurement": "GI50", "setting": "SNB-75", "result": "14.1 µM (inactive)"}, {"measurement": "GI50", "setting": "DU-145", "result": "75.9 µM (inactive)"}, {"measurement": "GI50", "setting": "K562", "result": "7.48 µM (inactive)"}, {"measurement": "GI50", "setting": "IGROV-1", "result": "4.43 µM (inactive)"}, {"measurement": "GI50", "setting": "SK-MEL-2", "result": "27.4 µM (inactive)"}, {"measurement": "GI50", "setting": "EKVX", "result": "56.8 µM (inactive)"}, {"measurement": "GI50", "setting": "HT-29", "result": "> 100 µM (inactive)"}, {"measurement": "GI50", "setting": "UO-31", "result": "5.85 µM (inactive)"}, {"measurement": "GI50", "setting": "PC-3", "result": "17.8 µM (inactive)"}, {"measurement": "GI50", "setting": "RXF 393", "result": "27.9 µM (inactive)"}, {"measurement": "GI50", "setting": "SF-295", "result": "36 µM (inactive)"}, {"measurement": "GI50", "setting": "U-251", "result": "20.7 µM (inactive)"}, {"measurement": "GI50", "setting": "MCF7", "result": "15.4 µM (inactive)"}, {"measurement": "GI50", "setting": "SW-620", "result": "> 100 µM (inactive)"}, {"measurement": "GI50", "setting": "OVCAR-5", "result": "86.7 µM (inactive)"}, {"measurement": "GI50", "setting": "OVCAR-4", "result": "16.7 µM (inactive)"}, {"measurement": "GI50", "setting": "SF-539", "result": "55.1 µM (inactive)"}, {"measurement": "GI50", "setting": "HCT-116", "result": "26.4 µM (inactive)"}, {"measurement": "GI50", "setting": "HOP-62", "result": "21.4 µM (inactive)"}, {"measurement": "GI50", "setting": "A549", "result": "46.7 µM (inactive)"}, {"measurement": "GI50", "setting": "NCI-H460", "result": "12.4 µM (inactive)"}, {"measurement": "GI50", "setting": "T47D", "result": "1.64 µM (inactive)"}, {"measurement": "GI50", "setting": "NCI-H522", "result": "54.5 µM (inactive)"}, {"measurement": "GI50", "setting": "Hs-578T", "result": "12.3 µM (inactive)"}, {"measurement": "GI50", "setting": "OVCAR-8", "result": "44.4 µM (inactive)"}, {"measurement": "GI50", "setting": "SNB-19", "result": "31.8 µM (inactive)"}, {"measurement": "GI50", "setting": "OVCAR-3", "result": "14.1 µM (inactive)"}, {"measurement": "GI50", "setting": "SR", "result": "18.7 µM (inactive)"}, {"measurement": "GI50", "setting": "HCC 2998", "result": "3.49 µM (inactive)"}, {"measurement": "GI50", "setting": "Malme-3M", "result": "49 µM (inactive)"}, {"measurement": "GI50", "setting": "NCI-H23", "result": "17.1 µM (inactive)"}, {"measurement": "GI50", "setting": "UACC-62", "result": "15.6 µM (inactive)"}, {"measurement": "GI50", "setting": "CCRF-CEM", "result": "39.6 µM (inactive)"}, {"measurement": "GI50", "setting": "SK-OV-3", "result": "24.5 µM (inactive)"}, {"measurement": "GI50", "setting": "UACC-257", "result": "88.1 µM (inactive)"}, {"measurement": "GI50", "setting": "MDA-MB-231", "result": "13.1 µM (inactive)"}, {"measurement": "GI50", "setting": "BT-549", "result": "23.6 µM (inactive)"}]}]}
